Data reported in ChEMBL document CHEMBL1208753, “Peptide deformylase inhibitors with retro-amide scaffold: synthesis and structure-activity relationships” (Bioorg Med Chem Lett, 2010).
In brackets after ≈: the same amount, converted by molar mass.

Key:
Peptide deformylase = target: T1, Peptide deformylase (Pseudomonas aeruginosa (strain ATCC 15692 / PAO1 / 1C / PRS 101 / LMG12228), UniProt Q9I7A8); assay: Inhibition of Pseudomonas aeruginosa Peptide deformylase by fluorescence analysis
T1 sequence (Q9I7A8 whole entry): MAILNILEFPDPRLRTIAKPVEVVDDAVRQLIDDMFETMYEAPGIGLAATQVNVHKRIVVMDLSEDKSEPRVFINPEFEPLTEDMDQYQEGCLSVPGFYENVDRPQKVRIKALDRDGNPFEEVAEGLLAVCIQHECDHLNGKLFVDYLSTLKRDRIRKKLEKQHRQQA

Streptococcus pneumoniae = assay: Antimicrobial activity against Streptococcus pneumoniae ATCC 6305 after 48 hrs; type: functional; details: ATCC 6305, 48 h
Haemophilus influenzae = assay: Antimicrobial activity against Haemophilus influenzae ATCC 51907 after 24 hrs; type: functional; details: ATCC 51907, 24 h
Moraxella catarrhalis = assay: Antimicrobial activity against Moraxella catarrhalis ATCC 43617 after 48 hrs; type: functional; details: ATCC 43617, 48 h

IC50 (Peptide deformylase)	MIC (Streptococcus pneumoniae)	MIC (Haemophilus influenzae)	MIC (Moraxella catarrhalis)	Compound
0.041 µM	12.5 µg/mL (≈ 32.1 µM)	3.2 µg/mL (≈ 8.22 µM)	0.1 µg/mL (≈ 0.257 µM)	CC(C)(C)[C@H](NC(=O)c1ccccc1)C(=O)N(CC(=O)NO)CC1CCCC1
0.029 µM	0.2 µg/mL (≈ 0.46 µM)	0.2 µg/mL (≈ 0.46 µM)	0.1 µg/mL (≈ 0.23 µM)	COc1ccccc1NC(=O)N[C@H](C(=O)N(CC(=O)NO)CC1CCCC1)C(C)(C)C
0.011 µM	50 µg/mL (≈ 119 µM)	0.4 µg/mL (≈ 0.953 µM)	0.1 µg/mL (≈ 0.238 µM)	COc1ccccc1C(=O)N[C@H](C(=O)N(CC(=O)NO)CC1CCCC1)C(C)(C)C
0.065 µM	25 µg/mL (≈ 61.7 µM)	6.3 µg/mL (≈ 15.5 µM)	0.2 µg/mL (≈ 0.493 µM)	CC(C)(C)[C@H](NC(=O)Nc1ccncc1)C(=O)N(CC(=O)NO)CC1CCCC1
0.028 µM	25 µg/mL (≈ 62.7 µM)	12.5 µg/mL (≈ 31.4 µM)	0.2 µg/mL (≈ 0.502 µM)	CC(C)(C)[C@H](NC(=O)N1CCOCC1)C(=O)N(CC(=O)NO)CC1CCCC1
0.021 µM	0.8 µg/mL (≈ 1.89 µM)	0.8 µg/mL (≈ 1.89 µM)	0.1 µg/mL (≈ 0.237 µM)	COc1ccccc1NC(=O)N[C@H](C(=O)N(CCC(C)C)CC(=O)NO)C(C)(C)C
0.013 µM	0.8 µg/mL (≈ 1.9 µM)	0.8 µg/mL (≈ 1.9 µM)	0.1 µg/mL (≈ 0.238 µM)	COc1ccccc1NC(=O)N[C@H](C(=O)N(CC(=O)NO)CC1CCCC1)C(C)C
0.055 µM	6.3 µg/mL (≈ 15.3 µM)	6.3 µg/mL (≈ 15.3 µM)	0.1 µg/mL (≈ 0.244 µM)	CC(C)(C)[C@H](NC(=O)NC1CCCCC1)C(=O)N(CC(=O)NO)CC1CCCC1
0.049 µM	6.3 µg/mL (≈ 15.5 µM)	3.2 µg/mL (≈ 7.89 µM)	0.1 µg/mL (≈ 0.247 µM)	CC(C)(C)[C@H](NC(=O)Nc1cccnc1)C(=O)N(CC(=O)NO)CC1CCCC1
0.052 µM	100 µg/mL (≈ 281 µM)	50 µg/mL (≈ 141 µM)	0.8 µg/mL (≈ 2.25 µM)	CC(C)C(=O)N[C@H](C(=O)N(CC(=O)NO)CC1CCCC1)C(C)(C)C
0.116 µM	200 µg/mL (≈ 478 µM)	200 µg/mL (≈ 478 µM)	50 µg/mL (≈ 119 µM)	COc1ccccc1NC(=O)N1CCC[C@H]1C(=O)N(CC(=O)NO)CC1CCCC1
0.031 µM	0.4 µg/mL (≈ 0.892 µM)	0.8 µg/mL (≈ 1.78 µM)	0.1 µg/mL (≈ 0.223 µM)	COc1ccccc1NC(=O)N[C@H](C(=O)N(CCC1CCCC1)CC(=O)NO)C(C)(C)C
0.013 µM	0.4 µg/mL (≈ 0.951 µM)	0.4 µg/mL (≈ 0.951 µM)	0.1 µg/mL (≈ 0.238 µM)	COc1ccccc1NC(=O)N[C@H](C(=O)N(CC(=O)NO)CC1CCC1)C(C)(C)C
0.061 µM	25 µg/mL (≈ 53.4 µM)	25 µg/mL (≈ 53.4 µM)	12.5 µg/mL (≈ 26.7 µM)	COc1ccccc1NC(=O)N[C@@H](Cc1ccccc1)C(=O)N(CC(=O)NO)CC1CCCC1
0.036 µM	3.2 µg/mL (≈ 7.36 µM)	3.2 µg/mL (≈ 7.36 µM)	0.8 µg/mL (≈ 1.84 µM)	COc1ccccc1NC(=O)N[C@@H](CC(C)C)C(=O)N(CC(=O)NO)CC1CCCC1
0.019 µM	12.5 µg/mL (≈ 31.6 µM)	1.6 µg/mL (≈ 4.05 µM)	0.2 µg/mL (≈ 0.506 µM)	CC(C)(C)[C@H](NC(=O)c1cccs1)C(=O)N(CC(=O)NO)CC1CCCC1
0.032 µM	3.2 µg/mL (≈ 7.36 µM)	1.6 µg/mL (≈ 3.68 µM)	0.2 µg/mL (≈ 0.46 µM)	CC[C@@H](C)[C@H](NC(=O)Nc1ccccc1OC)C(=O)N(CC(=O)NO)CC1CCCC1
0.054 µM	12.5 µg/mL (≈ 30.8 µM)	0.8 µg/mL (≈ 1.97 µM)	0.1 µg/mL (≈ 0.247 µM)	CC(C)(C)[C@H](NC(=O)Nc1ccccn1)C(=O)N(CC(=O)NO)CC1CCCC1
0.017 µM	3.2 µg/mL (≈ 7.91 µM)	0.4 µg/mL (≈ 0.989 µM)	0.1 µg/mL (≈ 0.247 µM)	CC(C)(C)[C@H](NC(=O)Nc1ccccc1)C(=O)N(CC(=O)NO)CC1CCCC1
0.042 µM	6.3 µg/mL (≈ 16.1 µM)	12.5 µg/mL (≈ 31.9 µM)	12.5 µg/mL (≈ 31.9 µM)	COc1ccccc1NC(=O)N[C@@H](C)C(=O)N(CC(=O)NO)CC1CCCC1
0.047 µM	12.5 µg/mL (≈ 31.5 µM)	12.5 µg/mL (≈ 31.5 µM)	0.8 µg/mL (≈ 2.02 µM)	CC(C)(C)[C@H](NC(=O)N1CCCCC1)C(=O)N(CC(=O)NO)CC1CCCC1
0.05 µM	50 µg/mL (≈ 119 µM)	25 µg/mL (≈ 59.7 µM)	0.4 µg/mL (≈ 0.956 µM)	CN(C(=O)N[C@H](C(=O)N(CC(=O)NO)CC1CCCC1)C(C)(C)C)c1ccccc1
0.015 µM	12.5 µg/mL (≈ 30.8 µM)	6.3 µg/mL (≈ 15.5 µM)	1.6 µg/mL (≈ 3.94 µM)	COc1ccccc1NC(=O)N[C@H](C(=O)N(CC(=O)NO)CC1CC1)C(C)(C)C
0.042 µM	6.3 µg/mL (≈ 16.3 µM)	6.3 µg/mL (≈ 16.3 µM)	0.1 µg/mL (≈ 0.259 µM)	COCCNC(=O)N[C@H](C(=O)N(CC(=O)NO)CC1CCCC1)C(C)(C)C
